In patent US9926299B2, “Inhibitors of bruton's tyrosine kinase” (Centaurus BioPharma Co., Ltd., priority 2012, dated 2018):

Legend:
Ramos cells = experiment: BCR-induced calcium flux fluorescence-based assay in Ramos cells; details: Ramos cells stimulated with goat anti-human IgM antibody; read-out: Ramos Cell Ca Flux IC50
Description: Calcium flux fluorescence-based assays were performed using Fluo-4 Direct™ Calcium Assay Kits (purchased from Invitrogen) in a FlexStation III (purchased from Molecular Devices) according to manufacturer instructions. In brief, actively growing Romas cells in RPM1-1640 medium (purchased from Invitrogen) supplemented with 10% FBS (purchased from Hyclone) were washed and re-plated in low serum medium at approximately 1×10^5 cells per 45 μL per well in a 96-well plate (purchased from Corning), then added 45 μL of dye (purchased from Invitrogen) and incubated at 37 degree for 1 hour. Compounds to be assayed were dissolved and 3-fold serially diluted in DMSO and then diluted by 100 times in low serum medium. Then 10 μL of the diluted mixture were added to the above 96-well plate (final DMSO concentration was 0.1%) and incubated at 37 degree in 5% CO2 incubator for 0.5 hour. The compound-treated cells were stimulated with a goat anti-human IgM antibody (10 μg/ml; purchased from SouthernBiotech) and read in the FlexStation III using a λEx=494 nM and […] for 90 seconds. The relative fluorescence unit (RFU) and the IC50 were recorded and analyzed using a GraphPad Prism 5 (GraphPad Software).

BTK kinase = BTK kinase (Homo sapiens (Human), UniProt Q06187); experiment: Btk kinase enzymatic assay (HTRF); type: biochemical; details: ATP at Km
Chain of BTK kinase (Q06187 whole entry): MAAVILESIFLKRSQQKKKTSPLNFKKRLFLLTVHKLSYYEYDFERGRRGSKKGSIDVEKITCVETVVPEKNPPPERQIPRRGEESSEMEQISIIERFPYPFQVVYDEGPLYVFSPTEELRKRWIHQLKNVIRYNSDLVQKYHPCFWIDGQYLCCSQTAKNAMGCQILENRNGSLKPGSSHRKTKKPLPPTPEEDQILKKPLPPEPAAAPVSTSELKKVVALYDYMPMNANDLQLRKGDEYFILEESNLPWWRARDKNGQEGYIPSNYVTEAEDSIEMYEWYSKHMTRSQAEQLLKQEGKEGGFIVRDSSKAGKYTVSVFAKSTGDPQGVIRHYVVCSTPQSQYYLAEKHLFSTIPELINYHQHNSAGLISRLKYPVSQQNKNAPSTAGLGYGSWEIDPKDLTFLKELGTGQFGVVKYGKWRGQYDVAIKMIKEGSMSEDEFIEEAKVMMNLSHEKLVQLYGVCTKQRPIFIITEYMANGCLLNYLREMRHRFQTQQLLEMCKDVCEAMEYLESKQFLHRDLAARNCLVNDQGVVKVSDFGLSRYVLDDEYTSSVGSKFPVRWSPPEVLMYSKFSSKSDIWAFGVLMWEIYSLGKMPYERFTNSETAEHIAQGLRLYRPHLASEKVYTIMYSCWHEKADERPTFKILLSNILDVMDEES
Description: Btk kinase activity was determined using a Homogeneous Time-Resolved Fluorescence (HTRF) methodology (Cisbio). […] The mixture was centrifuged and incubated for 5 min. […] For each compound, enzyme activity was measured at various concentrations of compound, and IC50s were obtained by GraFit Software 6.0 (Erithacus Software).

SMILES | IC50 (Ramos cells) | IC50 (BTK kinase)
C=CC(=O)N1CC[C@@H](n2nc(-c3ccc(Oc4cc(F)cc(F)c4)cc3)c(C(N)=O)c2N)C1 [Example 41, (R)-1-(1-acryloylpyrrolidin-3-yl)-5-amino-3-(4-(3,5-difluorophenoxyl)phenyl)-1H-pyrazole-4-carboxamide] | < 100 nM | < 100 nM
C=CC(=O)N1CCCC(n2nc(-c3ccc(Oc4ccccc4)cc3)c(C(N)=S)c2N)C1 (centres unmarked) [Example 37, 1-(1-acryloylpiperidin-3-yl)-5-amino-3-(4-phenoxyphenyl)-1H-pyrazole-4-carbothioamide] | < 100 nM | < 100 nM
C=CC(=O)N1CC[C@@H](n2nc(-c3ccc(Oc4ccc(C)c([N+](=O)[O-])c4)cc3)c(C(N)=O)c2N)C1 [Example 48, (R)-1-(1-acryloylpyrrolidin-3-yl)-5-amino-3-(4-(4-methyl-3-nitrophenoxy)phenyl)-1H-pyrazole-4-carboxamide] | < 100 nM | < 100 nM
C=CS(=O)(=O)N1CCC[C@@H](n2nc(-c3ccc(Oc4ccccc4)cc3)c(C(N)=O)c2N)C1 [27 (R-isomer)] | < 100 nM | < 100 nM
CN(C)C/C=C/C(=O)N(C)CCn1nc(-c2ccc(Oc3ccccc3)cc2)c(C(N)=O)c1N [Example 35, (E)-5-amino-1-(2-(4-(dimethylamino)-N-methylbut-2-enamido)ethyl)-3-(4-phenoxyphenyl)-1H-pyrazole-4-carboxamide] | < 100 nM | < 100 nM
NC(=O)c1c(-c2ccc(Oc3ccccc3)cc2)nn(C2CCCN(C(=O)CCl)C2)c1N (centres unmarked) [Example 28, 5-amino-1-(1-(2-chloroacetyl)piperidin-3-yl)-3-(4-phenoxyphenyl)-1H-pyrazole-4-carboxamide] | < 100 nM | < 100 nM
C#CC(=O)N(C)CCn1nc(-c2ccc(Oc3ccccc3)cc2)c(C(N)=O)c1N [Example 32, 5-amino-1-(2-(N-methylpropiolamido)ethyl)-3-(4-phenoxyphenyl)-1H-pyrazole-4-carboxamide] | < 100 nM | < 100 nM
C=CC(=O)N1CCCC(n2nc(-c3ccc(Oc4ccccc4)cc3)c(C(N)=O)c2N)C1 (centres unmarked) [Example 22, 1-(1-acryloylpiperidin-3-yl)-5-amino-3-(4-phenoxyphenyl)-1H-pyrazole-4-carboxamide] | < 100 nM | –
C=CC(=O)N1CCCC(n2nc(-c3ccc(Oc4ccccc4)cc3)c(C(N)=O)c2NCCN2CCOCC2)C1 (centres unmarked) [Example 13, 1-(1-acryloylpiperidin-3-yl)-5-(2-morpholinoethylamino)-3-(4-phenoxy-phenyl)-1H-pyrazole-4-carboxamide] | < 100 nM | < 100 nM
C=CC(=O)NCCn1nc(-c2ccc(Oc3ccccc3)cc2)c(C(N)=O)c1N [Example 31, 1-(2-acrylamidoethyl)-5-amino-3-(4-phenoxyphenyl)-1H-pyrazole-4-carboxamide] | < 100 nM | < 100 nM
C=CC(=O)N1CCC[C@@H](n2nc(-c3ccc(Oc4ccccc4)cc3)c(C(N)=O)c2N)C1 [Example 18, (R)-1-(1-acryloylpiperidin-3-yl)-5-amino-3-(4-phenoxyphenyl)-1H-pyrazole-4-carboxamide] | < 100 nM | –
C=CC(=O)N1CCCC(n2nc(-c3ccc(Oc4ccccc4)cc3)c(C(N)=O)c2NC)C1 (centres unmarked) [Example 1, 1-(1-acryloylpiperidin-3-yl)-5-(methylamino)-3-(4-phenoxyphenyl)-1H-pyrazole-4-carboxamide] | < 100 nM | < 100 nM
C=CS(=O)(=O)N(C)CCn1nc(-c2ccc(Oc3ccccc3)cc2)c(C(N)=O)c1N [Example 33, 5-amino-1-(2-(N-methylvinylsulfonamido)ethyl)-3-(4-phenoxyphenyl)-1H-pyrazole-4-carboxamide] | < 100 nM | < 100 nM
C=CC(=O)N1CC[C@@H](n2nc(-c3ccc(Oc4ccc(Cl)cc4)cc3)c(C(N)=O)c2N)C1 [Example 43, (R)-1-(1-acryloylpyrrolidin-3-yl)-5-amino-3-(4-(4-chlorophenoxyl)phenyl)-1H-pyrazole-4-carboxamide] | < 100 nM | < 100 nM
C=CC(=O)N1CCC(n2nc(-c3ccc(Oc4ccccc4)cc3)c(C(N)=O)c2N)CC1 [Example 24, 1-(1-acryloylpiperidin-4-yl)-5-amino-3-(4-phenoxyphenyl)-1H-pyrazole-4-carboxamide] | < 100 nM | < 100 nM
C=CC(=O)N1CC[C@@H](n2nc(-c3ccc(Oc4ccccc4Cl)cc3)c(C(N)=O)c2N)C1 [Example 45, (R)-1-(1-acryloylpyrrolidin-3-yl)-5-amino-3-(4-(2-chlorophenoxyl)phenyl)-1H-pyrazole-4-carboxamide] | < 100 nM | < 100 nM
C=CC(=O)N1CCC[C@H](n2nc(-c3ccc(Oc4ccccc4)cc3)c(C(N)=O)c2N)C1 [Example 23, (S)-1-(1-acryloylpiperidin-3-yl)-5-amino-3-(4-phenoxyphenyl)-1H-pyrazole-4-carboxamide] | < 100 nM | –

The next lines start with the values.

IC50 (Ramos cells) | IC50 (BTK kinase) | SMILES
< 100 nM | < 100 nM | C=CC(=O)N1CCCC(n2nc(-c3ccc(Oc4ccccc4)cc3)c(C(N)=O)c2NCC)C1 (centres unmarked) [Example 6, 1-(1-acryloylpiperidin-3-yl)-5-(ethylamino)-3-(4-phenoxyphenyl)-1H-pyrazole-4-carboxamide]
< 100 nM | < 100 nM | CN(CCn1nc(-c2ccc(Oc3ccccc3)cc2)c(C(N)=O)c1N)C(=O)CCl [Example 34, 5-amino-1-(2-(2-chloro-N-methylacetamido)ethyl)-3-(4-phenoxyphenyl)-1H-pyrazole-4-carboxamide]
< 100 nM | < 100 nM | C=CC(=O)N1CCC[C@@H](n2nc(-c3ccc(Oc4ccccc4)cc3)c(C(N)=O)c2NC)C1 [Example 2, (R)-1-(1-acryloylpiperidin-3-yl)-5-(methylamino)-3-(4-phenoxyphenyl)-1H-pyrazole-4-carboxamide]
< 100 nM | < 100 nM | C=CC(=O)N1CC[C@@H](n2nc(-c3ccc(Oc4cccc(C(F)(F)F)c4)cc3)c(C(N)=O)c2N)C1 [Example 44, (R)-1-(1-acryloylpyrrolidin-3-yl)-5-amino-3-(4-(3-(trifluoromethyl)phenoxy)phenyl)-1H-pyrazole-4-carboxamide]
< 100 nM | < 100 nM | C=CC(=O)N(C)CCn1nc(-c2ccc(Oc3ccccc3)cc2)c(C(N)=O)c1N [Example 30, 5-amino-1-(2-(N-methylacrylamido)ethyl)-3-(4-phenoxyphenyl)-1H-pyrazole-4-carboxamide]
< 100 nM | < 100 nM | C=CC(=O)N1CC[C@@H](n2nc(-c3ccc(Oc4cccc(OC)c4)cc3)c(C(N)=O)c2N)C1 [Example 42, (R)-1-(1-acryloylpyrrolidin-3-yl)-5-amino-3-(4-(3-methoxyphenoxyl)phenyl)-1H-pyrazole-4-carboxamide]
< 100 nM | < 100 nM | C=CC(=O)N1CC[C@@H](n2nc(-c3ccc(Oc4ccc(OC)cc4)cc3)c(C(N)=O)c2N)C1 [Example 46, (R)-1-(1-acryloylpyrrolidin-3-yl)-5-amino-3-(4-(4-methoxyphenoxyl)phenyl)-1H-pyrazole-4-carboxamide]
< 100 nM | < 100 nM | C=CC(=O)N1CCC(n2nc(-c3ccc(Oc4ccccc4)cc3)c(C(N)=O)c2N)C1 (centres unmarked) [Example 25, 1-(1-acryloylpyrrolidin-3-yl)-5-amino-3-(4-phenoxyphenyl)-1H-pyrazole-4-carboxamide]
< 100 nM | < 100 nM | C=CC(=O)N1CC[C@@H](n2nc(-c3ccc(Oc4ccccc4)cc3)c(C(N)=O)c2N)C1 [25 (R-isomer)]
< 100 nM | < 100 nM | C=CC(=O)N1CC[C@@H](n2nc(-c3ccc(Oc4cc([N+](=O)[O-])ccc4C)cc3)c(C(N)=O)c2N)C1 [Example 47, (R)-1-(1-acryloylpyrrolidin-3-yl)-5-amino-3-(4-(2-methyl-5-nitrophenoxy)phenyl)-1H-pyrazole-4-carboxamide]
< 100 nM | < 100 nM | C#CC(=O)N1CCCC(n2nc(-c3ccc(Oc4ccccc4)cc3)c(C(N)=O)c2N)C1 (centres unmarked) [Example 26, 5-amino-3-(4-phenoxyphenyl)-1-(1-propioloylpiperidin-3-yl)-1H-pyrazole-4-carboxamide]
< 100 nM | < 100 nM | C=CC(=O)N1CC[C@H](n2nc(-c3ccc(Oc4ccccc4)cc3)c(C(N)=O)c2N)C1 [25 (S-isomer)]
< 100 nM | < 100 nM | CN(C)C/C=C/C(=O)N1CCCC(n2nc(-c3ccc(Oc4ccccc4)cc3)c(C(N)=O)c2N)C1 (centres unmarked) [Example 29, (E)-5-amino-1-(1-(4-(dimethylamino)but-2-enoyl)piperidin-3-yl)-3-(4-phenoxyphenyl)-1H-pyrazole-4-carboxamide]
< 100 nM | < 100 nM | C=CC(=O)N1CCCC(n2nc(-c3ccc(Oc4ccccc4)cc3)c(C(N)=O)c2NCCN2CCN(C)CC2)C1 (centres unmarked) [Example 15, 1-(1-acryloylpiperidin-3-yl)-5-(2-(4-methylpiperazin-1-yl)ethylamino)-3-(4-phenoxy-phenyl)-1H-pyrazole-4-carboxamide]
